pIC50: −log10 of the molar value.
What was measured:
[1] = target: T1, Dual specificity mitogen-activated protein kinase kinase 1 (Homo sapiens, UniProt Q02750); test: Inhibition of MEK1 (unknown origin) using ATP and ERK2 K54R as substrate after 60 to 80 mins by HTRF assay
[2] = target: T1, Dual specificity mitogen-activated protein kinase kinase 1
Description: Binding affinity to MEK1 (unknown origin) assessed as fluorescence intensity every 0.2 degC at 500 uM at 20 degC to 90 degC by differential screening fluorimetry analysis

[3] = target: T1, Dual specificity mitogen-activated protein kinase kinase 1; remark: listed apart in the source

T1 sequence (Q02750 whole entry): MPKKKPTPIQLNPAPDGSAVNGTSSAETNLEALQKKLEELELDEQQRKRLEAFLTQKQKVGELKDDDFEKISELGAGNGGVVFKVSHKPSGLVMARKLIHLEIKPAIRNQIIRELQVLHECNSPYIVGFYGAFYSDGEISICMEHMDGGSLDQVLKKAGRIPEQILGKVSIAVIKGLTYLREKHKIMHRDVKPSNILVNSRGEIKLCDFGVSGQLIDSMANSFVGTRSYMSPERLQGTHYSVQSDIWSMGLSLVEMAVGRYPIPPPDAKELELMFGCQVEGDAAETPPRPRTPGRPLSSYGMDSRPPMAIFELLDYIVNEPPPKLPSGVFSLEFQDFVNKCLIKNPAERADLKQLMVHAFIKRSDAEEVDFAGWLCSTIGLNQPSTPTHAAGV

Row | RU [3] | Structure (SMILES) | pIC50 [1] | ΔTm [2] [°C]
1 | – | CC1(O)CCN2C(=O)CCc3cccc1c32 (centres undefined) | 4.74 | 3.8
2 | 0.3 | O=c1[nH]ccc2cc(O[C@@H]3CCCNC3)c(Cl)cc12 | – | 0.2
